Values quoted from earlier work in patent US11337932B2, “Transdermal therapeutic system containing asenapine and polysiloxane or polyisobutylene” (LTS LOHMANN Therapie-Systeme AG, priority 2016, dated 2022).

How the values were obtained:
[1] = if ingested
[2] = biological target: serotonin 5-HT2A receptors (Homo sapiens, UniProt P28223); settings: background statement; antagonist at dopamine D2 and serotonin 5-HT2A receptors
Sequence of serotonin 5-HT2A receptors (P28223 whole entry): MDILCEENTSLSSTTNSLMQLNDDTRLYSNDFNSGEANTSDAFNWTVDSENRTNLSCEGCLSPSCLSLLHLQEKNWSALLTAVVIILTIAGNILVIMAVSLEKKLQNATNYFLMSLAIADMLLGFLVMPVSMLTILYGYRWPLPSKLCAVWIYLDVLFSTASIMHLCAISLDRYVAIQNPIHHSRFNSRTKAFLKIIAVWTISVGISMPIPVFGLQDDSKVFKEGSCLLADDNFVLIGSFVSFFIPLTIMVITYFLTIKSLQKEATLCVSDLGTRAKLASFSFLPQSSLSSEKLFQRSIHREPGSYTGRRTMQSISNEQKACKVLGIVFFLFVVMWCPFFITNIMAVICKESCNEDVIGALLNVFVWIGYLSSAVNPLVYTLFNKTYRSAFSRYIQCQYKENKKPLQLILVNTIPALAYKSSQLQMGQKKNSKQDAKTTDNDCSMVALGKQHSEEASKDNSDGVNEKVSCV

- bioavailability [1]: < 2%
- affinity [2]: high affinity
Structure (SMILES): CN1C[C@H]2c3ccccc3Oc3ccc(Cl)cc3[C@@H]2C1 (relative stereo) [asenapine, (3aRS,12bRS)-rel-5-chloro-2,3,3a,12b-tetrahydro-2-methyl-1H-dibenz[2,3:6,7]oxepino[4,5-c]pyrrole]
